pIC50: −log10 of the molar value.

The text below walks through data of patent publication US8933113B2 (Merck Sharp & Dohme Corp., priority 2011, dated 2015).

The target of this test is T1, full-length human Mineralocorticoid Receptor (MR) (Homo sapiens, UniProt P08235).
T1 construct: host or cells: PathHunter CHO-K1 cells
T1 sequence (P08235 1-984): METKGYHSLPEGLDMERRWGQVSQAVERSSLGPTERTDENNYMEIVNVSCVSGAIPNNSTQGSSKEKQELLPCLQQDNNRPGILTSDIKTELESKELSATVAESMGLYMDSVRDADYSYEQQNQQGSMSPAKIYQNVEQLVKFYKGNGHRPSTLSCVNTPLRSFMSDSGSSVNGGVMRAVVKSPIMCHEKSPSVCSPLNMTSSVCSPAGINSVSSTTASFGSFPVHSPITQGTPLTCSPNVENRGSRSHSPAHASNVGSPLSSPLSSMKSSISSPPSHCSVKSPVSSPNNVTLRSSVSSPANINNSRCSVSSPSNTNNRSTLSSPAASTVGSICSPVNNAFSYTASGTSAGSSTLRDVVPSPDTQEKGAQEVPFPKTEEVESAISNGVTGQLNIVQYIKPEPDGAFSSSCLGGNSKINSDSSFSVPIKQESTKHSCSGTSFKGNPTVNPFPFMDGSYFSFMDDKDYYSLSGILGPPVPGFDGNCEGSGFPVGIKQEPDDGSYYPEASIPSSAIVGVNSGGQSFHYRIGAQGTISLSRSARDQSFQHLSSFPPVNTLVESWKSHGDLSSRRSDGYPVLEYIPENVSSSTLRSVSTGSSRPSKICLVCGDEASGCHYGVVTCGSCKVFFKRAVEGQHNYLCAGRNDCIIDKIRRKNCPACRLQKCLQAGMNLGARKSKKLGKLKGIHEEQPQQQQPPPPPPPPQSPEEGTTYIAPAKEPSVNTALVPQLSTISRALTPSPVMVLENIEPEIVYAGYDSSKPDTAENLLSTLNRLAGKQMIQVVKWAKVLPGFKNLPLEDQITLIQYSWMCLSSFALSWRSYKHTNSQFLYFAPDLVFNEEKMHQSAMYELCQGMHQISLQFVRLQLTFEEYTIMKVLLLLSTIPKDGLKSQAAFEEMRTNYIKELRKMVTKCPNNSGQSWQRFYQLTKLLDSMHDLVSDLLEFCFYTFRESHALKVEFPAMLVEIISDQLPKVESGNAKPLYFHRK
As to the kind of experiment: human MR NH Pro assay (PathHunter Protein:Protein interaction assay), MR antagonist activity. Format: cell-based. The conditions noted are these: PathHunter CHO-K1 cells overexpressing human MR; aldosterone about 0.3 nM; 6 hours at 37° C.; luminescence; read-out: Primary Assay IP rating (IP = inflection point for a given dose-response titration curve). The source says:
The activity of the compounds of the present invention regarding mineralocorticoid receptor antagonism can be evaluated using the following assay.
Assessment of MR Potency in HMR NH Pro Assay
The human MR NH Pro assay is a commercially available PathHunter™ Protein:Protein interaction assay (DiscoveRx; http://www.discoverx.com/nhrs/prod-nhrs.php) that measures the ability of compounds to antagonize full-length human Mineralocorticoid Receptor (MR) binding to a coactivator peptide.
6. Test compounds are titrated starting at 4.4 mM, 10-point titration in 1:3 dilution.
3. Add 5 μL 6× agonist (final aldosterone concentration should be about 0.3 nM to about 1.0 nM) to all wells (using the PlateMate Plus.)
• (ThermoFisher) (except those wells in columns 23 and 24) 4. Add 5 uL of assay media to all wells in column 23 and 24. 5. Incubate 6 hrs at 37° C., 5% CO2. 6. Add 15 uL 3× DiscoveRx detection reagent to each well. 7. Incubate 1 hour at room temperature (keep plates stored in the dark). 8. Read plates on Envision (PerkinElmer) luminesence plate reader and analyze using ADA.
`CCC(C(=O)NCC(=O)OC)(c1ccc(Cl)cc1)n1ccc2c(NS(C)(=O)=O)cccc21` (stereo not drawn) [Compound 52, methyl N-[2-(4-chlorophenyl)-2-{4-[(methylsulfonyl)amino]-1H-indol-1-yl}butanoyl]glycinate]: the pIC50 was 6.30 to 7.00.

As for `COC(=O)C(c1ccc(F)cc1Cl)n1ccc2cc(Cl)ccc21` (stereo not drawn) [Compound 12, methyl (2-chloro-4-fluorophenyl)(5-chloro-1H-indol-1-yl)acetate], the pIC50 is 5.30 to 6.30.

Turning to `CC[C@@](c1ccc(Cl)cc1)(c1noc(C)n1)n1ccc2c(NS(C)(=O)=O)cccc21` [Compound 57], the pIC50 was more than 7.00.

As for `CCC(c1ccc(C(F)(F)F)cc1)(C(C)O)n1ncc2c(NS(C)(=O)=O)cccc21` (single isomer, unassigned) [Compound 116, N-(1-(2-hydroxy-3-(4-(trifluoromethyl)phenyl)pentan-3-yl)-1H-indazol-4-yl)methanesulfonamide], the pIC50 is more than 7.00.

Turning to `CCC(C(C)=O)(c1ccc(C(F)(F)F)cc1)n1ccc2c(NS(C)(=O)=O)cccc21` (single isomer, unassigned) [Compound 103, N-(1-(2-oxo-3-(4-(trifluoromethyl)phenyl)pentan-3-yl)-1H-indol-4-yl)methanesulfonamide], the pIC50 was 6.30 to 7.00.

For the molecule `CC[C@](C(=O)NC(C)C)(c1ccc(Cl)cc1)n1ccc2c(NS(C)(=O)=O)cccc21` [Compound 44, (R)-2-(4-chlorophenyl)-N-(1-methylethyl)-2-{4-[(methylsulfonyl)amino]-1H-indol-1-yl}butanamide], the pIC50 is 6.30 to 7.00.

With `CCC(CCC#N)(c1ccc(Cl)cc1)n1ccc2c(NS(C)(=O)=O)cc(F)cc21` (single isomer, unassigned) [Compound 143, N-(1-(3-(4-chlorophenyl)-1-cyanopentan-3-yl)-6-fluoro-1H-indol-4-yl)methanesulfonamide], the pIC50 is more than 7.00.

Consider `CCC(COC)(c1ccc(Cl)cc1)n1ncc2c(NS(C)(=O)=O)cccc21` (single isomer, unassigned) [Compound 97, N-(1-(2-(4-chlorophenyl)-1-methoxybutan-2-yl)-1H-indazol-4-yl)methanesulfonamide], for which the pIC50 was more than 7.00.

As to `CCC(/C(C)=C/C#N)(c1ccc(Cl)cc1)n1ccc2c(NS(C)(=O)=O)cccc21` (stereo not drawn) [Compound 132, N-(1-(3-(4-Chlorophenyl)-1-cyano-2-methylpent-1-en-3-yl)-1H-indol-4-yl)methanesulfonamide], the pIC50 was more than 7.00.

Consider `CCC(C1=C(C#N)CCO1)(c1ccc(Cl)cc1)n1ccc2c(NS(C)(=O)=O)cccc21` (stereo not drawn) [Compound 147, N-(1-(1-(4-Chlorophenyl)-1-(3-cyano-4,5-dihydrofuran-2-yl)propyl)-1H-indol-4-yl)methane-sulfonamide], for which the pIC50 was 6.30 to 7.00.

For `CCC(C(C)=O)(c1ccc(Cl)cc1)n1ccc2c(NS(C)(=O)=O)cc(F)cc21` (stereo not drawn) [Compound 98, N-(1-(3-(4-chlorophenyl)-2-oxopentan-3-yl)-6-fluoro-1H-indol-4-yl)methanesulfonamide], the pIC50 is more than 7.00.

As for `CC[C@](C(=O)NCc1ccccc1)(c1ccc(Cl)cc1)n1ccc2c(NS(C)(=O)=O)cccc21` [Compound 43, (R)—N-benzyl-2-(4-chlorophenyl)-2-{4-[(methylsulfonyl)amino]-1H-indol-1-yl}butanamide], the pIC50 is 5.30 to 6.30.

For the molecule `CCC(COC)(c1ccc(Cl)cc1)n1ccc2c(NS(C)(=O)=O)cccc21` (single isomer, unassigned) [Compound 96, N-(1-(2-(4-chlorophenyl)-1-methoxybutan-2-yl)-1H-indol-4-yl)methanesulfonamide], the pIC50 was more than 7.00.

Take `CCC(/C=C/C#N)(c1ccc(Cl)cc1)n1ncc2c(N(C(=O)OC(C)(C)C)S(C)(=O)=O)cccc21` (stereo not drawn) [Compound 135, (E)-tert-butyl 1-(3-(4-chlorophenyl)-1-cyanopent-1-en-3-yl)-1H-indazol-4-yl(methylsulfonyl) carbamate]: the pIC50 is more than 7.00.

Take `CCC(CC#N)(c1ccc(Cl)cc1)n1ccc2c(NS(C)(=O)=O)cc(F)cc21` (single isomer, unassigned) [Compound 124, N-(1-(2-(4-chlorophenyl)-1-cyanobutan-2-yl)-6-fluoro-1H-indol-4-yl)methanesulfonamide]: the pIC50 was 6.30 to 7.00.

`CNC(=O)C(CC1CC1)(c1ccc(Cl)cc1)n1ccc2c(NS(C)(=O)=O)cccc21` (stereo not drawn) [Compound 56, 2-(4-chlorophenyl)-3-cyclopropyl-N-methyl-2-{4-[(methylsulfonyl)amino]-1H-indol-1-yl}propanamide]: the pIC50 is 6.30 to 7.00.

In the case of `CCC(CO)(c1ccc(Cl)cc1)n1ncc2c(NS(C)(=O)=O)cccc21` (single isomer, unassigned) [Compound 88, N-(1-(2-(4-chlorophenyl)-1-hydroxybutan-2-yl)-1H-indazol-4-yl)methanesulfonamide], the pIC50 was more than 7.00.

In the case of `CCC(/C=C/C#N)(c1ccc(Cl)cc1)n1ncc2c(NS(C)(=O)=O)cc(F)cc21` (stereo not drawn) [Compound 130, (E)-N-(1-(3-(4-chlorophenyl)-1-cyanopent-1-en-3-yl)-6-fluoro-1H-indazol-4-yl)methanesulfonamide], the pIC50 is more than 7.00.

As for `CCC(C(=O)OC)(c1ccc(Cl)cc1)n1ccc2c(CCS(C)(=O)=O)cccc21` (stereo not drawn) [Compound 153, Methyl 2-(4-chlorophenyl)-2-(4-(2-(methylsulfonyl)ethyl)-1H-indol-1-yl)butanoate], the pIC50 is more than 7.00.

Consider `CCC(CC#N)(c1ccc(Cl)cc1)n1ccc2c(NS(C)(=O)=O)cccc21` (single isomer, unassigned) [Compound 121, N-(1-(2-(4-chlorophenyl)-1-cyanobutan-2-yl)-1H-indol-4-yl)methanesulfonamide], for which the pIC50 is more than 7.00.

In the case of `CCC(CCC#N)(c1ccc(Cl)cc1)n1ncc2c(NS(C)(=O)=O)cc(F)cc21` (stereo not drawn) [Compound 145, N-(1-(3-(4-chlorophenyl)-1-cyanopentan-3-yl)-6-fluoro-1H-indazol-4-yl)methanesulfonamide], the pIC50 is more than 7.00.

On to `CCC(c1ccc(C(F)(F)F)cc1)(C(C)O)n1ncc2c(NS(C)(=O)=O)cccc21` (single isomer, unassigned) [Compound 117, N-(1-(2-hydroxy-3-(4-(trifluoromethyl)phenyl)pentan-3-yl)-1H-indazol-4-yl)methanesulfonamide], for which the pIC50 was more than 7.00.

As to `CCC(/C=C/C#N)(c1ccc(OC)cc1)n1ccc2c(NS(C)(=O)=O)cccc21` (stereo not drawn) [Compound 128, (E)-N-(1-(1-cyano-3-(4-methoxyphenyl)pent-1-en-3-yl)-1H-indol-4-yl)methanesulfonamide], the pIC50 was more than 7.00.

Turning to `CCC(c1ccc(Cl)cc1)(n1ncc2c(NS(C)(=O)=O)cccc21)C(C)(C)O` (single isomer, unassigned) [Compound 92, N-(1-(3-(4-chlorophenyl)-2-hydroxy-2-methylpentan-3-yl)-1H-indazol-4-yl)methane sulfonamide], the pIC50 is more than 7.00.

On to `CCC(c1ccc(C(F)(F)F)cc1)(C(C)O)n1ncc2c(NS(C)(=O)=O)cccc21` (single isomer, unassigned) [Compound 115, N-(1-(2-hydroxy-3-(4-(trifluoromethyl)phenyl)pentan-3-yl)-1H-indazol-4-yl)methanesulfonamide], for which the pIC50 is more than 7.00.

With `CS(=O)(=O)Nc1cccc2c1ccn2C(CC#N)(C(=O)NCC(F)(F)F)c1ccc(Cl)cc1` (stereo not drawn) [Compound 55, 2-(4-chlorophenyl)-3-cyano-2-{4-[(methylsulfonyl)amino]-1H-indol-1-yl}-N-(2,2,2-trifluoroethyl)propanamide], the pIC50 was 6.30 to 7.00.

As for `CCC(CCCF)(c1ccc(Cl)cc1)n1ccc2c(NS(C)(=O)=O)cccc21` (stereo not drawn) [Compound 170, N-(1-(3-(4-chlorophenyl)-6-fluorohexan-3-yl)-1H-indol-4-yl)methanesulfonamide], the pIC50 is more than 7.00.
